Source: patent US4138485A, “Phenylalanine derivatives” (Kyowa Hakko Kogyo Kabushiki Kaisha, priority 1976, dated 1979)

Legend:
Cholesterol in the serum = test: Cholesterol-lowering activity on normal rats of Wistar strain (serum cholesterol, liver weight); format: in vivo, rats (male Wistar strain); settings: 0.3% in diet; for B - Ratio of decrease of liver weight: continuous administration for 4 days; for C - Ratio of decrease of cholesterol / D - Ratio of increase of liver weight: continuous administration for 14 days
Experimental: (3) Cholesteral-lowering activity on normal rats of Wistar strain:
(i) 22 Groups, each consisting of 5 rats (male Wistar strain, weight -- 150 to 180 g) were used for the test and control groups. After this, the blood samples were collected by decapitation and then the corpuscle was removed by centrifugation. Cholesterol in the serum was determined by Zurkowski's method modified by Shibata and also the liver was excised and weighed. The results are shown in Table 4 wherein the ratio of 100% denotes the amount of chloresterol and the weight of the liver of normal rats fed with powdery diet without the addition of the compound.

[1] = test system: hyperlipemia induced by Triton; test: Cholesterol-lowering activity on hyperlipemia induced by Triton in mice; format: in vivo, mice (male dd-strain); settings: Mus musculus, po, 43 h, read-out: Ratio of the reduction of cholesterol
Experimental: (2) Cholesterol-Lowering activity on hyperlipemia induced by Triton in mice:
38 Groups, each consisting of 9 mice (male dd-strain, weight -- 19 to 21 g), were used for the test and control groups. […] Immediately after the administration and also after 20 hours from the administration of Triton, the mice were orally administered with 100 mg/kg of the compound shown in Table 3. 43 hours after the administration of Triton, the blood samples were collected by decapitation and then the corpuscle was removed by centrifugation. Cholesterol in the serum was determined by Zurkowski's method modified by Shibata (color of the test solution was developed by using sulfoalicyclic acid, acetic acid and sulfuric acid and the optical density of the solution was determined at 620 mμ.

Mouse = test: Tonic convulsion of hind paw of mice (stimulus by hand touch); format: in vivo, mice (male dd-strain); settings: oral, 30 to 360 minutes
Experimental: (§1) (1) Acute toxicity and tonic convulsion in hind paw:
(§2) The acute toxicity and tonic convulsion occured by stimulus by hand touch were determined in the following manner to give the results shown in Table 2.
(c) Tonic convulsion of hind paw of mice:
38 Groups, each consisting of 5 mice (male dd-strain, weight -- 18 to 24 g), were used for the test and control groups. The compounds shown in Table 2 were orally administered to the mice. At 30, 60, 120, 180 and 360 minutes after the administration, stimulus by hand touch was given to the mice and the tonic convulsion was observed.

Acute toxicity in mice = settings: in vivo; mouse, oral administration, after one week; read-out: Acute Toxicity (LD50), A
Experimental: as §1, §2
(a) Acute toxicity in mice:
38 Groups, each consisting of 5 mice (male dd-strain, weight -- 18 to 24 g), were used for the test and control groups. The compounds shown in Table 2 were administered orally or intraperitoneally to the mice. After one week, the survival ratio was measured.

Acute toxicity in rats = settings: in vivo; rat, oral administration, after one week; read-out: Acute Toxicity (LD50), C
Experimental: as §1, §2
(b) Acute toxicity in rats:
28 Groups, each consisting of 5 rats (male Wistar strain, weight -- 200 g), were used for the test and control groups. The compounds shown in Table 2 were orally administered to the rats. After one week, the survival ratio was measured.

SMILES	B - Ratio of decrease of liver weight (Cholesterol in the serum) [%]	inhibition in vivo at 100 mg/kg [1] [%]	Tonic convulsion (Mouse; D = 1000 mg/kg)	LD50 at 168 h (Acute toxicity in mice) [mg/kg]	LD50 at 168 h (Acute toxicity in rats) [mg/kg]	C - Ratio of decrease of cholesterol (Cholesterol in the serum) [%]	D - Ratio of increase of liver weight (Cholesterol in the serum) [%]	Tonic convulsion (Mouse; D = 500 mg/kg)
COC(=O)[C@H](Cc1ccccc1)NC(=O)SCc1ccc(F)cc1 [Compound 12, N-(4-fluorobenzylthiocarbonyl)-L-phenylalanine methylester]	45.9	76	+	> 1000	> 100			
O=C(N[C@@H](Cc1ccccc1)C(=O)O)SCc1ccccc1 [Compound 16, N-benzylthiocarbonyl-L-phenylalanine]		86		> 1000	> 200	9.2	79	+
O=C(NC(Cc1ccccc1)C(=O)O)SCc1ccccc1 (racemic) [Compound 17, N-benzylthiocarbonyl-D,L-phenylalanine]	35.2	95	+	> 1000	> 100			
COC(=O)[C@H](Cc1ccccc1)NC(=O)SCc1ccccc1C [Compound 21, N-(2-methylbenzylthiocarbonyl)-L-phenylalanine methylester]		43	+	> 1000				
COC(=O)[C@H](Cc1ccccc1)NC(=O)SCc1ccccc1 [Compound 18, N-benzylthiocarbonyl-L-phenylalanine methylester]	39	80		> 1000	> 200	3.0	92	+
